Laboratory results as given in US6737383B1, “Herbicidal oxadiazolidines” (priority 1999, dated 2004).

Legend:
wheat = experiment: Test B pre/postemergence wheat; format: in vivo, Triticum aestivum
Summary of the method: (§1)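 Herbicidal effect was estimated by eye on a ten-point control scale after plants spent twelve to sixteen days in a greenhouse following soil or foliar treatment. Foliar sprays targeted plants at one to four leaves; all doses were formulated in a non-phytotoxic solvent with surfactant.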

surinam grass = experiment: Test B pre/postemergence surinam grass; format: in vivo, Brachiaria decumbens
Summary of the method: as §1

sugar beet = experiment: Test B pre/postemergence sugar beet; format: in vivo, Beta vulgaris
Summary of the method: as §1

velvetleaf = experiment: Test B pre/postemergence velvetleaf; format: in vivo, Abutilon theophrasti
Summary of the method: as §1

giant foxtail = experiment: Test B pre/postemergence giant foxtail; format: in vivo, Setaria faberii
Summary of the method: as §1

soybean = experiment: Test B pre/postemergence soybean; format: in vivo, Glycine max
Summary of the method: as §1

cocklebur = experiment: Test B pre/postemergence cocklebur; format: in vivo, Xanthium strumarium
Summary of the method: as §1

rice = experiment: Test B flood test rice; format: in vivo, Oryza sativa
Summary of the method: (§2)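 Each value is a visual injury score relative to controls, with 10 meaning complete control and 0 no effect. Evaluation took place twelve to sixteen days after the 2-leaf-stage plants were treated and kept in the greenhouse.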

pigweed = experiment: Test B pre/postemergence pigweed; format: in vivo, Amaranthus retroflexus
Summary of the method: as §1

rape = experiment: Test B pre/postemergence rape; format: in vivo, Brassica napus
Summary of the method: as §1

bedstraw = experiment: Test B pre/postemergence bedstraw; format: in vivo, Galium aparine
Summary of the method: as §1

corn = experiment: Test B pre/postemergence corn; format: in vivo, Zea mays
Summary of the method: as §1

wild oat = experiment: Test B pre/postemergence wild oat; format: in vivo, Avena fatua
Summary of the method: as §1

purple nutsedge = experiment: Test B pre/postemergence purple nutsedge; format: in vivo, Cyperus rotundus
Summary of the method: as §1

duck salad = experiment: Test B flood test duck salad; format: in vivo, Heteranthera limosa
Summary of the method: as §2

smallflower flatsedge = experiment: Test B flood test smallflower flatsedge; format: in vivo, Cyperus difformis
Summary of the method: as §2

[1] = Postemergence, Rate 31 g/ha, visual rating, scale 0 to 10 (0 no effect, 10 complete control)
[2] = Preemergence, Rate 62 g/ha, scale of 0 to 10 where 0 is no effect and 10 is complete control
[3] = Preemergence, Rate 250 g/ha, scale of 0 to 10 where 0 is no effect and 10 is complete control
[4] = Rate 62 g/ha, Postemergence, scale 0 to 10 (0 no effect, 10 complete control)
[5] = Rate 125 g/ha, Postemergence, scale of 0 to 10 where 0 is no effect and 10 is complete control
[6] = Rate 250 g/ha, Postemergence, scale of 0 to 10 where 0 is no effect and 10 is complete control
[7] = Preemergence, Rate 31 g/ha, visual rating, scale 0 to 10 (0 no effect, 10 complete control)
[8] = Rate 31 g/ha, Pre-emergence section (flood test species), scale 0 to 10
[9] = Rate 62 g/ha, headed Pre-emergence (flood test species), scale 0 to 10 (0 no effect, 10 complete control)
[10] = Rate 125 g/ha, Pre-emergence, flood test species, scale 0 to 10 where 0 is no effect and 10 is complete control
[11] = Rate 250 g/ha, Pre-emergence, flood-test species, scale 0 to 10, 0 is no effect, 10 is complete control

## Cc1cccc(C)c1-n1c(=O)on(C(=O)N(c2ccc(Cl)cc2Cl)C2CCC2)c1=O [Compound 318]
wheat; [1]
  Wheat plant response rating: 0
wheat; [2]
  Wheat plant response rating: 0
wheat; Preemergence, Rate 125 g/ha
  Wheat plant response rating (0 to 10 scale): 0
wheat; [3]
  Wheat plant response rating: 0
wheat; [4]
  Wheat plant response rating: 0
wheat; [5]
  Wheat plant response rating: 0
wheat; [6]
  Plant response rating, Wheat: 0
Surinam grass; [1]
  B. signalgrass plant response rating: 0
Surinam grass; [7]
  B. signalgrass plant response rating: 0
Surinam grass; [2]
  B. signalgrass plant response rating: 0
Surinam grass; Preemergence, Rate 125 g/ha
  B. signalgrass plant response rating (0 to 10 scale, 0 is no effect, 10 is complete control): 0
Surinam grass; [3]
  B. signalgrass plant response rating: 0
Surinam grass; [4]
  B. signalgrass plant response rating: 0
Surinam grass; [5]
  B. signalgrass plant response rating: 0
Surinam grass; [6]
  Plant response rating, B. signalgrass: 0
Sugar beet; [1]
  Sugarbeets plant response rating: 0
Sugar beet; [2]
  Sugarbeets plant response rating: 0
Sugar beet; Preemergence, Rate 125 g/ha
  Sugarbeets plant response rating (0 to 10 scale): 0
Sugar beet; [3]
  Sugarbeets plant response rating: 0
Sugar beet; [4]
  Sugarbeets plant response rating: 0
Sugar beet; [5]
  Sugarbeets plant response rating: 0
Sugar beet; [6]
  Plant response rating, Sugarbeets: 0
velvetleaf; [1]
  Velvetleaf plant response rating: 0
velvetleaf; [2]
  Velvetleaf plant response rating: 0
velvetleaf; Preemergence, Rate 125 g/ha
  Velvetleaf plant response rating (0 to 10 scale): 0
velvetleaf; [3]
  Velvetleaf plant response rating: 0
velvetleaf; [4]
  Velvetleaf plant response rating: 0
velvetleaf; [5]
  Velvetleaf plant response rating: 0
velvetleaf; [6]
  Plant response rating, Velvetleaf: 0
Giant foxtail; [1]
  Giant foxtail plant response rating: 0
Giant foxtail; [7]
  Giant foxtail plant response rating: 0
Giant foxtail; [2]
  Giant foxtail plant response rating: 0
Giant foxtail; Preemergence, Rate 125 g/ha
  Giant foxtail plant response rating (0 to 10 scale): 0
Giant foxtail; [3]
  Giant foxtail plant response rating: 0
Giant foxtail; [4]
  Giant foxtail plant response rating: 0
Giant foxtail; [5]
  Giant foxtail plant response rating: 0
Giant foxtail; [6]
  Plant response rating, Giant foxtail: 0
soybean; [1]
  Soybean plant response rating: 0
soybean; [2]
  Soybean plant response rating: 0
soybean; Preemergence, Rate 125 g/ha
  Soybean plant response rating (0 to 10 scale): 0
soybean; [3]
  Soybean plant response rating: 0
soybean; [4]
  Soybean plant response rating: 0
soybean; [5]
  Soybean plant response rating: 0
soybean; [6]
  Plant response rating, Soybean: 1
cocklebur; [1]
  Cocklebur plant response rating: 0
cocklebur; [7]
  Cocklebur plant response rating: 0
cocklebur; [2]
  Cocklebur plant response rating: 0
cocklebur; Preemergence, Rate 125 g/ha
  Cocklebur plant response rating (0 to 10 scale): 0
cocklebur; [3]
  Cocklebur plant response rating: 0
cocklebur; [4]
  Cocklebur plant response rating: 0
cocklebur; [5]
  Cocklebur plant response rating: 0
cocklebur; [6]
  Plant response rating, Cocklebur: 5
rice; [8]
  Rice plant response rating: 0
rice; [9]
  Rice plant response rating: 0
rice; [10]
  Rice plant response rating: 0
rice; [11]
  Rice plant response rating: 0
pigweed; [1]
  Redroot pigweed plant response rating: 0
pigweed; [2]
  Redroot pigweed plant response rating: 0
pigweed; Preemergence, Rate 125 g/ha
  Redroot pigweed plant response rating (0 to 10 scale): 0
pigweed; [3]
  Redroot pigweed plant response rating: 0
pigweed; [4]
  Redroot pigweed plant response rating: 0
pigweed; [5]
  Redroot pigweed plant response rating: 0
pigweed; [6]
  Plant response rating, Redroot pigweed: 0
rape; [1]
  Rape plant response rating: 0
rape; [2]
  Rape plant response rating: 0
rape; Preemergence, Rate 125 g/ha
  Rape plant response rating (0 to 10 scale): 0
rape; [3]
  Rape plant response rating: 0
rape; [4]
  Rape plant response rating: 0
rape; [5]
  Rape plant response rating: 0
rape; [6]
  Plant response rating, Rape: 0
bedstraw; [1]
  Bedstraw plant response rating: 0
bedstraw; Preemergence, Rate 125 g/ha
  Bedstraw plant response rating (0 to 10 scale): 0
bedstraw; [3]
  Bedstraw plant response rating: 0
bedstraw; [4]
  Bedstraw plant response rating: 0
bedstraw; [5]
  Bedstraw plant response rating: 0
bedstraw; [6]
  Plant response rating, Bedstraw: 0
corn; [1]
  Corn plant response rating: 0
corn; [7]
  Corn plant response rating: 0
corn; [2]
  Corn plant response rating: 0
corn; Preemergence, Rate 125 g/ha
  Corn plant response rating (0 to 10 scale): 0
corn; [3]
  Corn plant response rating: 0
corn; [4]
  Corn plant response rating: 0
corn; [5]
  Corn plant response rating: 0
corn; [6]
  Plant response rating, Corn: 0
Wild oat; [1]
  Wild oats plant response rating: 0
Wild oat; [2]
  Wild oats plant response rating: 0
Wild oat; Preemergence, Rate 125 g/ha
  Wild oats plant response rating (0 to 10 scale): 0
Wild oat; [3]
  Wild oats plant response rating: 0
Wild oat; [4]
  Wild oats plant response rating: 0
Wild oat; [5]
  Wild oats plant response rating: 0
Wild oat; [6]
  Plant response rating, Wild oats: 0
Purple nutsedge; [1]
  Nutsedge plant response rating: 0
Purple nutsedge; [2]
  Nutsedge plant response rating: 0
Purple nutsedge; Preemergence, Rate 125 g/ha
  Nutsedge plant response rating (0 to 10 scale): 0
Purple nutsedge; [4]
  Nutsedge plant response rating: 0
Purple nutsedge; [5]
  Nutsedge plant response rating: 0
Purple nutsedge; [6]
  Plant response rating, Nutsedge: 0
Duck salad; [8]
  Ducksalad plant response rating: 0
Duck salad; [9]
  Ducksalad plant response rating: 0
Duck salad; [10]
  Ducksalad plant response rating: 0
Duck salad; [11]
  Ducksalad plant response rating: 0
Smallflower flatsedge; [8]
  S. Flatsedge plant response rating: 0
Smallflower flatsedge; [9]
  S. Flatsedge plant response rating: 0
Smallflower flatsedge; [10]
  S. Flatsedge plant response rating: 0
Smallflower flatsedge; [11]
  S. Flatsedge plant response rating: 0
